≈ marks a conversion by molar mass, not a printed value. Where “and” joins values, the source holds several entries; their conditions need not be identical. Equal entries are not always repeated. Where two headings read alike, the source gives them in different places.
Columns and labels:
[1] = system: S. aureus strain USA300LAC; assay: Checkerboard assay with JC-01-074 (FIC index); format: cell-based, Staphylococcus aureus; details: MHB, 37 °C, 20 h, antibiotic combined with JC-01-074
Protocol: Therefore, we tested whether the membrane-disrupting effects of JC-01-074 could increase the sensitivity of the S. aureus strain USA300LAC to antibiotics of different classes; for instance, by facilitating their uptake into the cytoplasm. […] Antibiotic concentrations were prepared by the microbroth dilution in MHB based on their MIC values (Table 1) to obtain the final concentrations as outlined in the 96-well plate scheme for each antibiotic tested (Supplementary Figure S3). Overnight USA300LAC cultures were diluted to 5 × 10^5 CFU/mL in MHB, and the growth was recorded at 37 °C and 200 rpm for 20 h in the presence and absence of the indicated antibiotic.
FICs were calculated as the ratio of the MIC of the antimicrobial in combination with the MIC of the antimicrobial alone. Interactions were categorized as synergistic (<0.5), additive or no interaction (0.5–2), and antagonistic (>2). FICs were calculated from three biological replicates.
Following previous studies, the checkerboard assay was employed to determine whether JC-01-074 had synergistic effects in combination with members of different antibiotic classes. The indicated antibiotics tested in combination were first serially diluted two-fold in MHB on a longitudinal axis in a 96-well polystyrene plate. JC-01-074 was then serially diluted two-fold across the 96-well plate horizontal axis. The plates were inoculated with USA300LAC to a final inoculum concentration of 5 x10^5 CFU/mL (O.D.600nm = 0.0001) and incubated overnight at 37 °C for 20 h. The growth was measured at 600 nm in a Tecan 200 Infinite Pro microplate reader. The fractional inhibitory concentration was calculated as follows:FIC = MICJC-01-074 + antibiotics/[…]
The classification of interactions was based on the FIC index: interactions were categorized as synergistic (FIC ≤ 0.5), additive/no interaction (FIC 0.5–2.0), and antagonistic (FIC > 2.0).

MRSA USA300LAC [2] = assay: MIC by broth microdilution (CLSI); format: cell-based, Staphylococcus aureus; details: for MIC: Staphylococcus aureus, MRSA USA300LAC, MHB, 37 °C, 16 h, read-out: MIC
Protocol: (§1) The MIC values of the alkyl pyridinol derivatives against the S. aureus strain ATCC 25923, MRSA strains ATCC 33591, ATCC BAA-44, and USA300LAC, as well as the P. aeruginosa strain ATCC 27853, were determined by following the CLSI guidelines for the broth microdilution antibiotic sensitivity testing protocol. In brief, the overnight cultures were diluted into Mueller Hinton Broth (MHB) to a final inoculum concentration of 5 × 10^5 CFU/mL (O.D600nm = 0.00001) and dispensed into a 96-well polystyrene plate (Alkali Scientific, Fort Lauderdale, FL, USA). Alkyl pyridine compounds were diluted into inoculated MHB to the indicated concentrations from stock solutions that would allow for DMSO concentrations below 5%, resulting in a total volume of 200 μL per well. The plates were subsequently incubated at 37 °C for 16 h at 300 rpm. The MIC values, which are defined as the lowest compound concentration that inhibited growth, were determined from three biological replicates.

MRSA USA300LAC [3] = assay: Minimal bactericidal concentration (MBC); format: cell-based, Staphylococcus aureus; details: for bactericidal or bacteriostatic effect: USA300LAC, in words
Protocol: In brief, 10 µL of each culture was serially diluted and plated onto prewarmed LB agar and incubated overnight at 37 °C under static conditions to observe the colony-forming units (CFUs). The concentration at which no CFUs were observed was recorded as the MBC.

[4] = system: 3T3 mouse embryonic fibroblast cells; assay: MTT cytotoxicity assay; format: cell-based; details: 3T3 cells; for IC50: Mus musculus, NIH3T3, 24 h
Protocol: To gauge the potential for toxicity of the new alkyl pyridinol derivates, we tested their cytotoxicity by examining the metabolic activity of 3T3 mouse embryonic fibroblast cells using the tetrazolium dye 3-(4,5-dimethylthiazol-2-yl)-2,5-diphenyltetrazolium bromide (MTT), as has been done before. The dye is reduced by NAD(P)H-dependent cellular oxidoreductases, resulting in the formation of the insoluble formazan with its purple color, which can be quantified. 3T3 cells were treated with different concentrations of the alkyl pyridinol compounds for 24 h, and the absorbance of the MTT-treated cell culture supernatant was measured at 540 nm. Absorbances were plotted against concentrations of the compound added (Supplementary Figure S2), and IC50, the concentration of a drug required for 50% metabolic inhibition, was calculated for each compound. […] However, the concentrations at which these compounds compromise 3T3 mouse embryonic fibroblast cells are well above their reported MICs (Table 2).
3T3 cells (male mouse embryonic fibroblast Flp-In cells, Thermo Fisher, Waltham, MA, USA) were cultured in D-MEM (Corning, Corning, NY, USA) supplemented with 10% Fetal Clone III (Cytiva Hyclone, Bengaluru, India) and L-Glutamine (Alfa Aesar, Haverhill, MA, USA) at 37 °C and 5% CO2. To determine the compound’s toxicity, 3T3 cells were seeded at a density of 10,000 cells/well into 96-well plates (Fisherbrand, Waltham, MA, USA) and cultured as described above. After 16 h, the culture medium was extracted and replaced by supplemented D-MEM without phenol red (Corning, Glendale, AZ, USA) containing individual compounds in the indicated concentrations. Furthermore, 1% sodium dodecyl sulfate (SDS) and 2% dimethyl sulfoxide (DMSO), equivalent to the volume of the DMSO in the highest compound concentration, were used as the cell death and vehicle control, respectively. Moreover, 16 h after compound treatment, the culture medium was extracted again and replaced by fresh supplemented D-MEM without phenol red. Subsequently, 10 µL of 5 mg/mL MTT reagent (Alfa Aesar, Haverhill, MA, USA), dissolved in DMSO, was added to each well, and the cells were incubated for 2 h at 37 °C and 5% CO2. Next, 85 µL of the culture supernatant was removed from each well, mixed with 50 µL of DMSO, and incubated in an optical grade 96-well plate (Fisherbrand, Waltham, MA, USA) in a shaking incubator at 37 °C and 250 rpm. The absorbance of the MTT-treated cell culture supernatant was measured at 540 nm in an ELx808 plate reader (Biotek, Winooski, VT, USA).

S. aureus/MRSA strains = assay: MIC by broth microdilution, S. aureus/MRSA strains; format: cell-based, Staphylococcus aureus; details: for MIC: Staphylococcus aureus, MRSA, S. aureus/MRSA strains tested, strain not singled out, read-out: MIC
Text: (§2) To assess the impact of the nitrogen position in our newly synthesized anaephene derivates, we analyzed their antimicrobial activities against various S. aureus strains, including ATCC 25,923 and the two methicillin-resistant S. aureus (MRSA) strains ATCC 33,591 and ATCC BAA-44. […] We determined the minimum inhibitory concentrations (MIC) of each of our compounds against the different bacterial strains by broth microdilution following the CLSI guidelines. As expected, all five compounds tested were completely ineffective against the Gram-negative P. aeruginosa strain ATCC 27,853 (Table 1).
as §1

MRSA ATCC 33591 = assay: MIC by broth microdilution (CLSI); format: cell-based; details: Staphylococcus aureus, MHB, 37 °C, 16 h
Text: as §2, §1

P. aeruginosa ATCC 27853 = assay: MIC by broth microdilution (CLSI); format: cell-based; details: Pseudomonas aeruginosa, ATCC27853, MHB, 37 °C, 16 h
Text: as §2, §1

MRSA ATCC BAA-44 = assay: MIC by broth microdilution (CLSI); format: cell-based; details: Staphylococcus aureus, MHB, 37 °C, 16 h
Text: as §2, §1

S. aureus ATCC 25923 = assay: MIC by broth microdilution (CLSI); format: cell-based; details: Staphylococcus aureus, ATCC25923, MHB, 37 °C, 16 h
Text: as §2, §1

USA300LAC cells = assay: Propidium iodide uptake assay (membrane damage); format: cell-based, Staphylococcus aureus; details: up to 2× MIC, 1 h exposure
Text: The alkyl pyridinol derivates synthesized in this study are characterized by high lipophilicity. To determine whether and to what extent these compounds incorporate into and disrupt the phospholipid bilayer of the S. aureus cell envelope, we performed a propidium iodide (PI) uptake assay. Given the membrane-impermeable nature of PI, the fluorophore can be used to assess membrane disruption in cells by measuring its non-specific interaction with DNA, which leads to enhanced fluorescence. […] The extent of membrane damage caused by JC-01-074 occurred in a dose-dependent manner.
Figure 4 JC-01-074 causes significant membrane damage in S. aureus. Membrane damage was evaluated via propidium iodide (PI) staining. […] Treatment of USA300LAC with 2.5% DMSO, 4 µg/mL vancomycin, and 0.25% SDS were included as negative and positive controls, respectively. Cells were collected, washed, resuspended in PBS, and stained with 1 µM PI. PI fluorescence was measured (exc./em. wavelengths: 535/615 nm) and normalized to OD600nm. One-way ANOVA, Dunnett’s multiple-comparison test (* p < 0.05, **** p < 0.0001); (n = 3, ±S.D.).
The plasma membrane integrity was determined using the Propidium Iodide Uptake assay, as previously described. Briefly, the overnight cultures of USA300LAC were diluted into fresh TSB media, grown to an early log phase at 37 °C and 300 rpm, and treated with either DMSO, an alkyl pyridinol derivate, vancomycin, or SDS at the indicated concentrations for 1 h. Following two washing steps, the cells were then resuspended in phosphate-buffered saline (PBS), pH = 7.4, and subsequently stained with 1 µM propidium iodide (PI). The PI fluorescence intensity was determined at an excitation wavelength of 535 nm and an emission wavelength of 615 nm.

[5] = 24 h treatment, mean ± S.D., read-out: IC50

SMILES	interaction with JC-01-074 (sum of FIC values) [1]	MIC (MRSA USA300LAC [2])	IC50 [4, 5]	MIC (MRSA ATCC 33591)	MIC (P. aeruginosa ATCC 27853)	MIC (MRSA ATCC BAA-44)	MIC (S. aureus ATCC 25923)	also measured
CC1(C)S[C@@H]2[C@H](NC(=O)[C@H](N)c3ccccc3)C(=O)N2[C@H]1C(=O)O [Ampicillin]	additive (additive/no interaction (FIC 0.5–2.0))	2.33 µg/mL (≈ 6.67 µM)						
O=C(N[C@H](CO)[C@H](O)c1ccc([N+](=O)[O-])cc1)C(Cl)Cl [Chloramphenicol]		4 µg/mL (≈ 12.4 µM)						
O=C(O)c1cn(C2CC2)c2cc(N3CCNCC3)c(F)cc2c1=O [Ciprofloxacin]	antagonistic (antagonistic (FIC > 2.0))							
C[C@H]1c2cccc(O)c2C(=O)C2=C(O)[C@]3(O)C(=O)C(C(N)=O)=C(O)[C@@H](N(C)C)[C@@H]3[C@@H](O)[C@@H]21 [Doxycycline]	antagonistic (antagonistic (FIC > 2.0))	0.125 µg/mL (≈ 0.281 µM)						
CCCCCCCCCC#Cc1cc(O)cc(Br)n1 [EA-02-009]		32 µg/mL (≈ 98.7 µM)	107 ± 82.3 µM	0.5 µg/mL (≈ 1.54 µM)	> 128 µg/mL	1 µg/mL (≈ 3.08 µM)	1 µg/mL (≈ 3.08 µM)	MBC (MRSA USA300LAC [3]; Staphylococcus aureus, MRSA USA300LAC, concentration at which no CFUs were observed): > 128 µg/mL; bactericidal or bacteriostatic effect (MRSA USA300LAC [3]): bacteriostatic; bactericidal or bacteriostatic effect (MRSA USA300LAC [3]; listed as EA-002-009): no significant killing; IC50 of single biological replicates (Figure S2) ([4]; 24 hours, one value per biological replicate, listed as EA-02-09): 16.1 µg/ml and 17.4 µg/ml and 31.4 µg/ml and 73.2 µg/ml; MIC (S. aureus/MRSA strains): 0.5 to 1 µg/mL (≈ 1.54 to 3.08 µM); changes in PI intensity (USA300LAC cells): minimal changes
CCCCCCCCCC#Cc1cc(O)ccn1 [EA-02-011]			43.6 µM and 10.7 µg/mL	32 µg/mL (≈ 130 µM)	> 128 µg/mL	32 µg/mL (≈ 130 µM)	32 µg/mL (≈ 130 µM)	IC50 of single biological replicates (Figure S2) ([4]; 24 hours, one value per biological replicate, listed as EA-02-11): 10.9 µg/ml and 8.6 µg/ml; IC50 ([4]; 24 hours, one value per biological replicate, read-out: IC50 of single biological replicates (Figure S2)): 12.7 µg/mL; MIC (S. aureus/MRSA strains): 32 µg/mL (≈ 130 µM)
CNC(C)C1CCC(N)C(OC2C(N)CC(N)C(OC3OCC(C)(O)C(NC)C3O)C2O)O1 (stereo not drawn) [Gentamycin]	additive (additive/no interaction (FIC 0.5–2.0))	1 µg/mL (≈ 2.09 µM)						
CCCCCCCCCC#Cc1cc(O)cc(C#CCCCCCCCCC)n1 [JC-01-083]			78.2 µM and 31 µg/mL	> 128 µg/mL	> 128 µg/mL	> 128 µg/mL	> 128 µg/mL	IC50 of single biological replicates (Figure S2) ([4]; 24 hours, one value per biological replicate, listed as JC-01-83): 32 µg/ml and 43.5 µg/ml and 27.7 µg/ml and 20.8 µg/ml; antimicrobial activity against S. aureus/MRSA strains (S. aureus/MRSA strains; in words): completely inactive
CCCCCCCCCC(=O)N[C@@H](Cc1c[nH]c2ccccc12)C(=O)N[C@H](CC(N)=O)C(=O)N[C@@H](CC(=O)O)C(=O)N[C@@H]1C(=O)NCC(=O)N[C@@H](CCCN)C(=O)N[C@@H](CC(=O)O)C(=O)N[C@H](C)C(=O)N[C@@H](CC(=O)O)C(=O)NCC(=O)N[C@H](CO)C(=O)N[C@@H]([C@H](C)CC(=O)O)C(=O)N[C@@H](CC(=O)c2ccccc2N)C(=O)O[C@@H]1C [daptomycin]								MIC (1× MIC as used for microscopy) (MRSA USA300LAC [2]; USA300LAC, stated in figure legend): 4 µg/mL

— paper PMC11428593 (Antibiotics, 2024)
